From PubChem BioAssay AID2060355 (Molecular Pharmacology Branch, DTP, NCI, 2025)

Test system: 485368-065-R4-J2-PDC spheroids with HUVEC/MSC, viability
Assay: Anticancer human tumor 485368-065-R4-J2-PDC patient-derived pancreatic carcinoma cell line growth inhibition [TAK]
Settings: for IC50: curve of first compound; for viability, T/C: stronger effect = lower value
Procedure, shortened: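 Spheroids of 60% malignant cells, 25% HUVEC and 15% hMSC were exposed to targeted agents combined with TAK-243 or ipatasertib. Concentrations started at or near clinical Cmax (10 microM if unknown) and descended in half-log steps.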

[1] = second compound 0.3 µM, first compound 0.0316 µM
[2] = second compound 0.3 µM, first compound 0.1 µM
[3] = second compound 0.3 µM, first compound 0.316 µM
[4] = second compound 0.3 µM, first compound 1 µM
[5] = second compound 0.3 µM, first compound 3.16 µM
[6] = second compound 0.3 µM, first compound 10 µM
[7] = second compound 0.949 µM, first compound 0.0316 µM
[8] = second compound 0.949 µM, first compound 0.1 µM
[9] = second compound 0.949 µM, first compound 0.316 µM
[10] = second compound 0.949 µM, first compound 1 µM
[11] = second compound 0.949 µM, first compound 3.16 µM
[12] = second compound 0.949 µM, first compound 10 µM
[13] = second compound 3 µM, first compound 0.0316 µM
[14] = second compound 3 µM, first compound 0.1 µM
[15] = second compound 3 µM, first compound 0.316 µM
[16] = second compound 3 µM, first compound 1 µM
[17] = second compound 3 µM, first compound 3.16 µM
[18] = second compound 3 µM, first compound 10 µM
[19] = second compound 9.49 µM, first compound 0.0316 µM
[20] = second compound 9.49 µM, first compound 0.1 µM
[21] = second compound 9.49 µM, first compound 0.316 µM
[22] = second compound 9.49 µM, first compound 1 µM
[23] = second compound 9.49 µM, first compound 3.16 µM
[24] = second compound 9.49 µM, first compound 10 µM
[25] = second compound 30 µM, first compound 0.0316 µM
[26] = second compound 30 µM, first compound 0.1 µM
[27] = second compound 30 µM, first compound 0.316 µM
[28] = second compound 30 µM, first compound 1 µM
[29] = second compound 30 µM, first compound 3.16 µM
[30] = second compound 30 µM, first compound 10 µM
[31] = second compound 0.3 µM, first compound 0.00316 µM
[32] = second compound 0.3 µM, first compound 0.01 µM
[33] = second compound 0.949 µM, first compound 0.00316 µM
[34] = second compound 0.949 µM, first compound 0.01 µM
[35] = second compound 3 µM, first compound 0.00316 µM
[36] = second compound 3 µM, first compound 0.01 µM
[37] = second compound 9.49 µM, first compound 0.00316 µM
[38] = second compound 9.49 µM, first compound 0.01 µM
[39] = second compound 30 µM, first compound 0.00316 µM
[40] = second compound 30 µM, first compound 0.01 µM
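Note: spheroids exposed to compounds for seven days before readout.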
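Throughout, for viability, T/C: 100% = DMSO vehicle control wells.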

CC(C)(C)c1nc(-c2cccc(NS(=O)(=O)c3c(F)cccc3F)c2F)c(-c2ccnc(N)n2)s1 + CC(C)NCC(C(=O)N1CCN(c2ncnc3c2C(C)CC3O)CC1)c1ccc(Cl)cc1
IC50 (second compound 0.3 µM): 2660 nM | IC50 (second compound 0.949 µM): 589 nM | IC50 (second compound 3 µM): 432 nM | IC50 (second compound 9.49 µM): 353 nM | IC50 (second compound 30 µM): 305 nM | viability, T/C [1]: 104% | viability, T/C [2]: 92.8% | viability, T/C [3]: 71.8% | viability, T/C [4]: 52.9% | viability, T/C [5]: 50.4% | viability, T/C [6]: 47.8% | viability, T/C [7]: 101% | viability, T/C [8]: 91.3% | viability, T/C [9]: 63.4% | viability, T/C [10]: 38.5% | viability, T/C [11]: 30.9% | viability, T/C [12]: 28.1% | viability, T/C [13]: 98.2% | viability, T/C [14]: 83% | viability, T/C [15]: 57.2% | viability, T/C [16]: 31.9% | viability, T/C [17]: 21.2% | viability, T/C [18]: 18% | viability, T/C [19]: 93.4% | viability, T/C [20]: 80.2% | viability, T/C [21]: 52.5% | viability, T/C [22]: 28.3% | viability, T/C [23]: 18.5% | viability, T/C [24]: 17.5% | viability, T/C [25]: 77.2% | viability, T/C [26]: 69.9% | viability, T/C [27]: 49.8% | viability, T/C [28]: 24.8% | viability, T/C [29]: 16.4% | viability, T/C [30]: 15.3%

CC(C)n1nc(-c2ccc3oc(N)nc3c2)c2c(N)ncnc21 + CC(C)NCC(C(=O)N1CCN(c2ncnc3c2C(C)CC3O)CC1)c1ccc(Cl)cc1
IC50 (second compound 0.3 µM): 58.5 nM | IC50 (second compound 0.949 µM): 29.3 nM | IC50 (second compound 3 µM): 20.8 nM | IC50 (second compound 9.49 µM): 10.1 nM | IC50 (second compound 30 µM): 6.33 nM | viability, T/C (second compound 0.3 µM, first compound 0.000316 µM): 95.7% | viability, T/C (second compound 0.3 µM, first compound 0.001 µM): 88% | viability, T/C [31]: 90.6% | viability, T/C [32]: 89.7% | viability, T/C [1]: 56.5% | viability, T/C [2]: 44.4% | viability, T/C (second compound 0.949 µM, first compound 0.000316 µM): 98.6% | viability, T/C (second compound 0.949 µM, first compound 0.001 µM): 99.3% | viability, T/C [33]: 91.4% | viability, T/C [34]: 66.7% | viability, T/C [7]: 51.2% | viability, T/C [8]: 40.3% | viability, T/C (second compound 3 µM, first compound 0.000316 µM): 97.8% | viability, T/C (second compound 3 µM, first compound 0.001 µM): 94.4% | viability, T/C [35]: 81.4% | viability, T/C [36]: 62.5% | viability, T/C [13]: 42.7% | viability, T/C [14]: 34.5% | viability, T/C (second compound 9.49 µM, first compound 0.000316 µM): 91.9% | viability, T/C (second compound 9.49 µM, first compound 0.001 µM): 86.1% | viability, T/C [37]: 75.2% | viability, T/C [38]: 49.4% | viability, T/C [19]: 36.8% | viability, T/C [20]: 32.5% | viability, T/C (second compound 30 µM, first compound 0.000316 µM): 73.1% | viability, T/C (second compound 30 µM, first compound 0.001 µM): 69.3% | viability, T/C [39]: 57.6% | viability, T/C [40]: 45.3% | viability, T/C [25]: 31.4% | viability, T/C [26]: 25.7%

CCCS(=O)(=O)Nc1ccc(F)c(C(=O)c2c[nH]c3ncc(-c4ccc(Cl)cc4)cc23)c1F + CC(C)NCC(C(=O)N1CCN(c2ncnc3c2C(C)CC3O)CC1)c1ccc(Cl)cc1
IC50 (second compound 0.3 µM): > 100000 nM | IC50 (second compound 0.949 µM): > 100000 nM | IC50 (second compound 3 µM): 6760 nM | IC50 (second compound 9.49 µM): 6080 nM | IC50 (second compound 30 µM): 4180 nM | viability, T/C [3]: 107% | viability, T/C [4]: 101% | viability, T/C [5]: 93.5% | viability, T/C [6]: 50.3% | viability, T/C (second compound 0.3 µM, first compound 31.6 µM): 24.3% | viability, T/C (second compound 0.3 µM, first compound 100 µM): 80.8% | viability, T/C [9]: 103% | viability, T/C [10]: 100% | viability, T/C [11]: 85.7% | viability, T/C [12]: 40.8% | viability, T/C (second compound 0.949 µM, first compound 31.6 µM): 25.1% | viability, T/C (second compound 0.949 µM, first compound 100 µM): 85.1% | viability, T/C [15]: 101% | viability, T/C [16]: 99.5% | viability, T/C [17]: 78.1% | viability, T/C [18]: 34.7% | viability, T/C (second compound 3 µM, first compound 31.6 µM): 29.8% | viability, T/C (second compound 3 µM, first compound 100 µM): 19.4% | viability, T/C [21]: 96.7% | viability, T/C [22]: 95.6% | viability, T/C [23]: 77.4% | viability, T/C [24]: 28.8% | viability, T/C (second compound 9.49 µM, first compound 31.6 µM): 20.2% | viability, T/C (second compound 9.49 µM, first compound 100 µM): 14.8% | viability, T/C [27]: 84% | viability, T/C [28]: 83.8% | viability, T/C [29]: 62.7% | viability, T/C [30]: 10.1% | viability, T/C (second compound 30 µM, first compound 31.6 µM): 10.2% | viability, T/C (second compound 30 µM, first compound 100 µM): 9.85%

COc1c(OCCCN2CCOCC2)ccc2c3n(c(=NC(=O)c4cnc(N)nc4)nc12)CCN3 + CC(C)NCC(C(=O)N1CCN(c2ncnc3c2C(C)CC3O)CC1)c1ccc(Cl)cc1
IC50 (second compound 0.3 µM): 133 nM | IC50 (second compound 0.949 µM): 161 nM | IC50 (second compound 3 µM): 75.6 nM | IC50 (second compound 9.49 µM): 45.8 nM | IC50 (second compound 30 µM): 15.1 nM | viability, T/C [31]: 91.7% | viability, T/C [32]: 76.2% | viability, T/C [1]: 94.5% | viability, T/C [2]: 55.6% | viability, T/C [3]: 35.1% | viability, T/C [4]: 31.2% | viability, T/C [33]: 96.3% | viability, T/C [34]: 100% | viability, T/C [7]: 84.6% | viability, T/C [8]: 61.1% | viability, T/C [9]: 34.3% | viability, T/C [10]: 33.2% | viability, T/C [35]: 95.9% | viability, T/C [36]: 86.8% | viability, T/C [13]: 66.5% | viability, T/C [14]: 45.6% | viability, T/C [15]: 31.5% | viability, T/C [16]: 31.2% | viability, T/C [37]: 81% | viability, T/C [38]: 72.8% | viability, T/C [19]: 56.6% | viability, T/C [20]: 37.2% | viability, T/C [21]: 28.4% | viability, T/C [22]: 28% | viability, T/C [39]: 60.4% | viability, T/C [40]: 56.5% | viability, T/C [25]: 38.8% | viability, T/C [26]: 29.8% | viability, T/C [27]: 25.3% | viability, T/C [28]: 26.3%

Cc1nc(NC(=O)N2CCCC2C(N)=O)sc1-c1ccnc(C(C)(C)C(F)(F)F)c1 (stereo not given) + CC(C)NCC(C(=O)N1CCN(c2ncnc3c2C(C)CC3O)CC1)c1ccc(Cl)cc1
IC50 (second compound 0.3 µM): > 10000 nM | IC50 (second compound 0.949 µM): 9660 nM | IC50 (second compound 3 µM): 7350 nM | IC50 (second compound 9.49 µM): 2670 nM | IC50 (second compound 30 µM): 1220 nM | viability, T/C [1]: 88.2% | viability, T/C [2]: 79.8% | viability, T/C [3]: 81.9% | viability, T/C [4]: 88.3% | viability, T/C [5]: 75.9% | viability, T/C [6]: 51.1% | viability, T/C [7]: 93.9% | viability, T/C [8]: 92% | viability, T/C [9]: 102% | viability, T/C [10]: 93.5% | viability, T/C [11]: 73.4% | viability, T/C [12]: 49.3% | viability, T/C [13]: 95.1% | viability, T/C [14]: 92.2% | viability, T/C [15]: 86% | viability, T/C [16]: 73.7% | viability, T/C [17]: 64.3% | viability, T/C [18]: 44.8% | viability, T/C [19]: 80.3% | viability, T/C [20]: 85.2% | viability, T/C [21]: 74.1% | viability, T/C [22]: 66% | viability, T/C [23]: 46.8% | viability, T/C [24]: 37.2% | viability, T/C [25]: 71.5% | viability, T/C [26]: 71.2% | viability, T/C [27]: 59.5% | viability, T/C [28]: 53.5% | viability, T/C [29]: 39.7% | viability, T/C [30]: 28.3%
